Assay results as given in PMC9440176, “Novel benzylidene benzofuranone analogues as potential anticancer agents: design, synthesis and in vitro evaluation based on CDK2 inhibition assays” (3 Biotech, 2022).

Test system: not listed separately
Test: ABTS.+ radical scavenging assay
Details: not given
Description: The assay was performed in a 96-well plate by serial dilution method. A 2 mM ABTS^.+ working solution was prepared in a phosphate buffer (Zheleva-Dimitrova et al [2010]).To this, 200 μL of aqueous potassium per sulfate (70 mM) solution was added and the solution was incubated for 24 h in the dark at room temperature to develop a blue-green color. To 30 μL of ABTS^.+ working solution, 50 μL of different concentrations (3.9–1000 μM) of the test sample solution and 170 μL of phosphate buffer (pH-7.4) were added in a well. The plate was then incubated in the dark at room temperature for 10 min. Then absorbance was measured at 690 nm using Elisa reader. Quercetin and ascorbic acid were used as standards. The percentage scavenging of ABTS^.+ was calculated using the formula, (Control Absorbance–Test Absorbance)*100/(Control Absorbance) and the anti-oxidant activity was expressed in terms of IC50 value.

SMILES | IC50
O=C1O[C@H]([C@@H](O)CO)C(O)=C1O [Ascorbic acid, reference compound] | 24.1 ± 1.23 µM
CCN1CC=C(c2c(OC)cc(OC)c3c2O/C(=C\c2ccc4ccccc4c2)C3=O)CC1 [NEA1] | 120.9 ± 1.08 µM
CCN1CC=C(c2c(OC)cc(OC)c3c2O/C(=C\c2ccccc2OC)C3=O)CC1 [NEA2] | 179 ± 6 µM
CCN1CC=C(c2c(OC)cc(OC)c3c2O/C(=C\c2ccccc2Br)C3=O)CC1 [NEA3] | 67.1 ± 3.2 µM
CCN1CC=C(c2c(OC)cc(OC)c3c2O/C(=C\c2ccc(Br)cc2)C3=O)CC1 [NEA4] | 71.67 ± 0.34 µM

Biological target: CDK2/Cyclin A (Homo sapiens, UniProt P24941)
Test: CDK2/cyclin A inhibitory assay, Z'-LYTE FRET kinase assay
Type: biochemical
Details: concentration of 100 micro molar; 1000 ng/ml kinase, 1000 µM ATP
Description: Z’-LYTE® technology involves homogeneous assay design based on FRET and is a universal platform for both screening as well as profiling protein kinases. The assay uses a peptide substrate labeled with two different fluorophores, coumarin donor and fluorescein acceptor on each end. These two fluorophores make up a FRET pair, which allows the transfer of energy when both are present on the same molecule. The initial kinase reaction transfers the ϒ-phosphate of ATP to a tyrosine or serine/threonine residue on the substrate. In a secondary reaction, referred to as the development reaction, a site-specific protease recognizes and cleaves only non-phosphorylated peptide, while phosphorylated substrate remains uncleaved. […] Upon excitation of Coumarin at 400 nm, the FRET signal is measured as a ratio between the Coumarin donor emission at 445–460 nm and the fluorescein acceptor emission at 520–535 nm(Lebakken et al. [2007]).
Initial ten-fold and two-fold dilutions of Kinase and ATP concentrations were used to choose the optimal Kinase and ATP concentration based on the % Phosphorylation.
The assay was carried out according to the kit instructions (384 well format). Briefly, 5X kinase buffer [250 mM HEPES (pH 7.5), 50 mM MgCl2, 5 mM EGTA, 0.05% BRIJ-35] was diluted to 1X using distilled water. The phosphor peptide positive control (Z’-LYTE® Tyr 4 phospho-peptide) and the non-phosphorylated negative control (Z’-LYTE® Tyr 4 peptide) were then diluted to 1:500 with 1× kinase buffer to 2 μM. […] Working development solution was then made by diluting 12 μL of the provided stock solution with 388 μL of the provided development buffer. Aliquots (20 μL) of each peptide mixture were then added to the wells of a Corning 3914 solid white microplate in replicates of 8. The development reaction was initiated by the addition of 10 μL of working development-solution to all the wells. Further, the plates were allowed to incubate at room temperature for 60 min. Reactions were then stopped by the addition of 10 μL of stop solution (Jia et al. [2008]).
Reactions were quantitated using a Tecan Robotic Microplate Reader. Reader control, blank subtraction, ratio metric calculations and finally graph plotting were carried out using Gen5™ Data Analysis Software.
The CDK2/Cyclin A assay was carried out as per the manufacturer’s instruction using suitable controls and standard.
The inhibitory assay was carried out using the stock of 10 mM in DMSO. Samples were further serially diluted to obtain concentrations of 100 μM. The concentrations were chosen based on the IC50 values obtained in the MTT assay. A total of 23 analogues were selected for the assay based on their antiproliferative activity. Further, selected compounds were screened and tested against the target CDK2/Cyclin A, and their % phosphorylation and % inhibition were recorded.

SMILES | % inhibition on CDK2/cyclin A
CCN1CC=C(c2c(OC)cc(OC)c3c2O/C(=C\c2ccc4ccccc4c2)C3=O)CC1 [NEA1] | 32.676%
CCN1CC=C(c2c(OC)cc(OC)c3c2O/C(=C\c2ccccc2OC)C3=O)CC1 [NEA2] | 28.008%
CCN1CC=C(c2c(OC)cc(OC)c3c2O/C(=C\c2ccccc2Br)C3=O)CC1 [NEA3] | 35.559%
CCN1CC=C(c2c(OC)cc(OC)c3c2O/C(=C\c2ccc(Br)cc2)C3=O)CC1 [NEA4] | 27.236%

Test system: normal epithelial kidney cells (Vero)
Test: MTT cytotoxicity assay on Vero
Type: cell-based
Details: 24 h, read-out: Inhibition of cell proliferation, IC50, Vero
Description: (§1) The monolayer cell culture was trypsinized and the cell count was adjusted to 5.0 × 10^5 cells/ml using respective media containing 10% FBS. To each well of the 96-well microtiter plate, 100 µL of the diluted cell suspension (50,000cells/well) was added. After 24 h, when a partial monolayer was formed, the supernatant was flicked off, the monolayer was then washed once again with the medium and 100 µL of different test concentrations of test drugs were added on to the partial monolayer in microtiter plates. The plates were then incubated at 37 °C for 24 h in 5% CO2 atmosphere. After incubation, the test solutions in the wells were discarded and 100 µL of MTT (5 mg/10 ml of MTT in PBS) was added to each well. The plates were then incubated for 4 h at 37 °C in 5% CO2 atmosphere. The supernatant was then removed and 100 µL of DMSO was added and the plates were gently shaken to solubilize the formed formazan. The absorbance was measured using a microtiter plate reader at a wavelength of 590 nm. The percentage growth inhibition was thus calculated using the following formula and the concentration of the test drug required to inhibit the cell growth by 50% (IC50) values is generated from the dose–response curves for each one of the cell lines (Meerloo et al. [2011]).
(§2) The test compounds were screened for their in vitro cytotoxicity by MTT assay against two cancer cell lines, namely MCF-7, HCT-116 and normal epithelial kidney cells (Vero). Doxorubicin was used as a reference standard.

SMILES | IC50
CCN1CC=C(c2c(OC)cc(OC)c3c2O/C(=C\c2ccc(Br)cc2)C3=O)CC1 [NEA4] | 188 µM

Test system: MCF-7
Test: MTT cytotoxicity assay on MCF-7
Type: cell-based
Details: 24 h, read-out: Inhibition of cell proliferation, IC50, MCF-7
Description: as §1, §2

SMILES | IC50
CCN1CC=C(c2c(OC)cc(OC)c3c2O/C(=C\c2ccc4ccccc4c2)C3=O)CC1 [NEA1] | 57.9 µM
CCN1CC=C(c2c(OC)cc(OC)c3c2O/C(=C\c2ccccc2OC)C3=O)CC1 [NEA2] | 49.1 µM
CCN1CC=C(c2c(OC)cc(OC)c3c2O/C(=C\c2ccccc2Br)C3=O)CC1 [NEA3] | 28.1 µM
CCN1CC=C(c2c(OC)cc(OC)c3c2O/C(=C\c2ccc(Br)cc2)C3=O)CC1 [NEA4] | 82.7 µM

Test system: HCT 116
Test: MTT cytotoxicity assay on HCT 116
Type: cell-based, Human
Details: 24 h, read-out: Inhibition of cell proliferation, IC50, HCT 116
Description: as §1, §2

SMILES | IC50
CCN1CC=C(c2c(OC)cc(OC)c3c2O/C(=C\c2ccc4ccccc4c2)C3=O)CC1 [NEA1] | 68.6 µM
CCN1CC=C(c2c(OC)cc(OC)c3c2O/C(=C\c2ccccc2OC)C3=O)CC1 [NEA2] | 56.7 µM
CCN1CC=C(c2c(OC)cc(OC)c3c2O/C(=C\c2ccccc2Br)C3=O)CC1 [NEA3] | 33 µM
CCN1CC=C(c2c(OC)cc(OC)c3c2O/C(=C\c2ccc(Br)cc2)C3=O)CC1 [NEA4] | 93.6 µM

Test system: not listed separately
Test: DPPH. free radical scavenging assay
Details: not given
Description: DPPH. assay was performed using 96-well plate by serial dilution method. The dilution of methanolic stock solution of the test compounds and standard anti-oxidants was carried out to obtain concentration in the range of 3.9–1000 µM. Quercetin and ascorbic acid were used as standards. To a 100 μL of this solution, 100 μL of 200 µM DPPH^. in methanolic solution was added. The experiment was done in triplicate and the plate was then incubated for 30 min in the dark and later the absorbance was measured at 517 nm using Elisa reader. The percentage DPPH^. Scavenging was calculated using the formula, (Control Absorbance–Test Absorbance)*100/(Control Absorbance). The anti-oxidant activity of the test compounds was expressed in terms of concentration required for 50 percentage inhibition (IC50) (Collins [2005]).

SMILES | IC50
O=C1O[C@H]([C@@H](O)CO)C(O)=C1O [Ascorbic acid, reference compound] | 18.5 ± 1.38 µM
CCN1CC=C(c2c(OC)cc(OC)c3c2O/C(=C\c2ccc4ccccc4c2)C3=O)CC1 [NEA1] | 141 ± 13.9 µM
CCN1CC=C(c2c(OC)cc(OC)c3c2O/C(=C\c2ccccc2OC)C3=O)CC1 [NEA2] | 220 ± 2.77 µM
CCN1CC=C(c2c(OC)cc(OC)c3c2O/C(=C\c2ccccc2Br)C3=O)CC1 [NEA3] | 85.5 ± 6.87 µM
CCN1CC=C(c2c(OC)cc(OC)c3c2O/C(=C\c2ccc(Br)cc2)C3=O)CC1 [NEA4] | 94.7 ± 4.9 µM
